Structures are written as SMILES.

From patent US12384789B2, “Compounds for treating Huntington's disease” (PTC Therapeutics, Inc., priority 2017, dated 2025) come the findings set out here.

This assay concerns Endogenous Huntingtin Protein. Put plainly: Endogenous Huntingtin Protein Assay (Meso Scale Discovery ELISA-based electrochemiluminescence). The following applies: MSD electrochemiluminescence, Table 1. It counts as cell-based. As to the method: Compounds of Formula (I) were tested using the Meso Scale Discovery (MSD) Assay provided in International Application No. PCT/US2016/066042, filed on Dec. 11, 2016 and claiming priority to United States Provisional Application U.S. 62/265,652 filed on Dec. 10, 2015, the entire contents of which are incorporated herein by reference.
The Endogenous Huntingtin Protein assay used in Example 1 was developed using the ELISA-based MSD electrochemiluminescence assay platform.
Endogenous Huntingtin Protein Assay
Meso Scale Discovery (MSD) 96-well or 384-well plates were coated overnight at 4° C. with MW1 (expanded polyglutamine) or MAB2166 monoclonal antibody (for capture) at a concentration of 1 μg/mL in PBS (30 μL per well). Plates were then washed three times with 300 μL wash buffer (0.05% Tween-20 in PBS) and blocked (100 μL blocking buffer; 5% BSA in PBS) for 4-5 hours at room temperature with rotational shaking and then washed three times with wash buffer.
Samples (25 μL) were transferred to the antibody-coated MSD plate and incubated overnight at 4° C. After removal of the lysates, the plate was washed three times with wash buffer, and 25 μL of #5656S (Cell signaling; rabbit monoclonal) secondary antibody (diluted to 0.25 μg/mL in 0.05% Tween-20 in blocking buffer) was added to each well and incubated with shaking for 1 Hour at room temperature. Following incubation with the secondary antibody, the wells were rinsed with wash buffer after which 25 μL of goat anti-rabbit SULFO TAG secondary detection antibody (required aspect of the MSD system) (diluted to 0.25 μg/mL in 0.05% Tween-20 in blocking buffer) was added to each well and incubated with shaking for 1 hour at room temperature. After rinsing three times with wash buffer, 150 μL of read buffer T with surfactant (MSD) were added to each empty well, and the plate was imaged on a SI 6000 imager (MSD) according to manufacturers' instructions provided for 96- or 384-well plates.
(An ELISA detects its analyte on a solid surface through an enzyme-linked reagent.)
In turn, `Cc1cn2nc(-c3cc(F)c4cc(C5CC(C)N(CCO)C(C)C5)nnc4c3)cc(C)c2n1` (stereo not drawn) [Compound 155, 2-{(25,65)-4-[7-(2,8-dimethylimidazo[1,2-b]pyridazin-6-yl)-5-fluorocinnolin-3-yl]-2,6-dimethylpiperidin-1-yl}ethan-1-ol] came in with an IC50 of at most 0.1 µM.

Consider `Cc1cn2cc(-c3cc(F)c4cc(C5CCNCC5)nnc4c3)cnc2n1` [Compound 91, 5-fluoro-7-(2-methylimidazo[1,2-a]pyrimidin-6-yl)-3-(piperidin-4-yl)cinnoline], for which the IC50 was in the range of 1 to 3 µM.

Take `CCc1cc(-c2cc(F)c3cc(C4CCNCC4)nnc3c2)nn2cc(C)nc12` [Compound 105, 7-(8-ethyl-2-methylimidazo[1,2-b]pyridazin-6-yl)-5-fluoro-3-(piperidin-4-yl)cinnoline]: the IC50 was at most 0.1 µM.

`COc1cc(-c2cc(F)c3cc(C4CCNCC4)nnc3c2)nn2cc(C)nc12` [Compound 106, 5-fluoro-7-(8-methoxy-2-methylimidazo[1,2-b]pyridazin-6-yl)-3-(piperidin-4-yl)cinnoline] came in with a half-maximal inhibitory concentration (IC50) of at most 0.1 µM.

The compound `CCOc1cc(-c2cc(F)c3nc(C4CCNCC4)nnc3c2)nn2cc(C)nc12` [Compound 59, 7-(8-ethoxy-2-methylimidazo[1,2-b]pyridazin-6-yl)-5-fluoro-3-(piperidin-4-yl)-1,2,4-benzotriazine] yielded an IC50 of at most 0.1 µM.

Take `CCN1CC=C(c2cc(F)c3nc(-c4cc(F)c5nn(C)cc5c4)ncc3c2)CC1` [Compound 201, 6-(1-ethyl-1,2,3,6-tetrahydropyridin-4-yl)-8-fluoro-2-(7-fluoro-2-methyl-2H-indazol-5-yl)quinazoline]: the half-inhibitory concentration (IC50) was at most 0.1 µM.

In turn, `Cc1cc(-c2cc3cnc(C4CCNCC4)nc3cc2F)cc2cn(C)nc12` [Compound 39, 6-(2,7-dimethyl-2H-indazol-5-yl)-7-fluoro-2-(piperidin-4-yl)quinazoline] had an IC50 of 1 to 3 µM.

In turn, `COc1cc(-c2nnc3cc(C4CCNCC4)ccc3n2)cc2cn(C)nc12` [Compound 52, 3-(7-methoxy-2-methyl-2H-indazol-5-yl)-7-(piperidin-4-yl)-1,2,4-benzotriazine] gave an IC50 of at most 0.1 µM.

The compound `Cn1cc2cc(-c3cc(F)c4nc(C5CCNCC5)ncc4c3)cc(C#N)c2n1` [Compound 35, 5-[8-fluoro-2-(piperidin-4-yl)quinazolin-6-yl]-2-methyl-2H-indazole-7-carbonitrile] came in with an IC50 of at most 0.1 µM.

The compound `Cc1cc(-c2cc(F)c3nc(C4CCNCC4)ccc3c2)cc2cn(C)nc12` [Compound 20, 6-(2,7-dimethyl-2H-indazol-5-yl)-8-fluoro-2-(piperidin-4-yl)quinoline] registered an IC50 of at most 0.1 µM.

In turn, `CCN1CCC(c2cc3ccc(-c4cc(C)c5nc(C)cn5n4)cc3nn2)CC1` [Compound 85, 7-(2,8-dimethylimidazo[1,2-b]pyridazin-6-yl)-3-(1-ethylpiperidin-4-yl)cinnoline] registered an IC50 of 0.1 to 0.5 µM.

Regarding `CCN1CC=C(c2cc(F)c3cc(-c4cc(F)c5nn(C)cc5c4)nnc3c2)CC1` [Compound 153, 7-(1-ethyl-1,2,3,6-tetrahydropyridin-4-yl)-5-fluoro-3-(7-fluoro-2-methyl-2H-indazol-5-yl)cinnoline], the IC50 was at most 0.1 µM.

In the case of `CC[C@H]1CC(c2cc3c(F)cc(-c4cc(C)c5nc(C)cn5n4)cc3nn2)C[C@H](CC)N1` (stereo partly drawn) [Compound 130, 3-[(2S,6S)-2,6-diethylpiperidin-4-yl]-7-(2,8-dimethylimidazo[1,2-b]pyridazin-6-yl)-5-fluorocinnoline], the IC50 was at most 0.1 µM.

The compound `Cc1cn2cc(-c3cc(F)c4cc(C5CCNCC5)nnc4c3)cc(C#N)c2n1` [Compound 93, 6-[5-fluoro-3-(piperidin-4-yl)cinnolin-7-yl]-2-methylimidazo[1,2-a]pyridine-8-carbonitrile] gave an IC50 of at most 0.1 µM.

In turn, `Cc1cn2nc(-c3cc4c(F)cc(C5CCNCC5)cc4nn3)cc(C)c2n1` [Compound 185, 3-(2,8-dimethylimidazo[1,2-b]pyridazin-6-yl)-5-fluoro-7-(piperidin-4-yl)cinnoline] gave an IC50 of at most 0.1 µM.

On to `Cc1cc(-c2cc(F)c3cc(C4C[C@@H](C)N(C)[C@@H](C)C4)nnc3c2)nc2cn(C)nc12` (stereo partly drawn) [Compound 227, 7-(2,7-dimethyl-2H-pyrazolo[4,3-b]pyridin-5-yl)-5-fluoro-3-((2S,4R,6R)-1,2,6-trimethylpiperidin-4-yl)cinnoline], for which the IC50 was at most 0.1 µM.

Turning to `Cc1cn2nc(-c3cc(F)c4cc(C5CCNCC5)nnc4c3)cc(C#N)c2n1` [Compound 108, 6-[5-fluoro-3-(piperidin-4-yl)cinnolin-7-yl]-2-methylimidazo[1,2-b]pyridazine-8-carbonitrile], the IC50 was at most 0.1 µM.

`Cc1cc(-c2ccc3nc(C4CC(C)(C)NC(C)(C)C4)ccc3c2)cc2cn(C)nc12` [Compound 14, 6-(2,7-dimethyl-2H-indazol-5-yl)-2-(2,2,6,6-tetramethylpiperidin-4-yl)quinoline] gave an IC50 of 0.1 to 0.5 µM.

With `Cc1cn2nc(-c3ccc4cc(C5CCNCC5)nnc4c3)cc(C)c2n1` [Compound 84, 7-(2,8-dimethylimidazo[1,2-b]pyridazin-6-yl)-3-(piperidin-4-yl)cinnoline], the IC50 was at most 0.1 µM.

In the case of `Cc1cn2nc(-c3cc(F)c4cc(N5C[C@@H](C)N[C@@H](C)C5)nnc4c3)cc(C)c2n1` [Compound 81, 7-(2,8-dimethylimidazo[1,2-b]pyridazin-6-yl)-3-[(3R,5S)-3,5-dimethylpiperazin-1-yl]-5-fluorocinnoline], the IC50 is at most 0.1 µM.

Compound `Cc1cc(-c2cc(F)c3nc(C4CCNCC4)nnc3c2)nc2cn(C)nc12` [Compound 66, 7-(2,7-dimethyl-2H-pyrazolo[4,3-b]pyridin-5-yl)-5-fluoro-3-(piperidin-4-yl)-1,2,4-benzotriazine] had an IC50 of at most 0.1 µM.

For the compound `Cc1cc(-c2ccc3nc(C4CCNCC4)ccc3c2)cc2cn(C)nc12` [Compound 15, 6-(2,7-dimethyl-2H-indazol-5-yl)-2-(piperidin-4-yl)quinoline], the IC50 is at most 0.1 µM.

`CCN1CCC(c2cc3c(F)cc(-c4cc(CO)c5nc(C)cn5n4)cc3nn2)CC1` [Compound 113, {6-[3-(1-ethylpiperidin-4-yl)-5-fluorocinnolin-7-yl]-2-methylimidazo[1,2-b]pyridazin-8-yl}methanol]: the IC50 is at most 0.1 µM.

In turn, `Cn1cc2cc(-c3ccc4cc(C5CCNCC5)cc(F)c4n3)cc(F)c2n1` [Compound 192, 8-fluoro-2-(7-fluoro-2-methyl-2H-indazol-5-yl)-6-(piperidin-4-yl)quinoline] yielded an IC50 of at most 0.1 µM.

Regarding `Cn1cc2cc(-c3cc4c(F)cc(C5=CCNCC5)cc4nn3)cc(F)c2n1` [Compound 134, 5-fluoro-3-(7-fluoro-2-methyl-2H-indazol-5-yl)-7-(1,2,3,6-tetrahydropyridin-4-yl)cinnoline], the IC50 was at most 0.1 µM.

`COCCNc1cc(-c2cc(F)c3nc(C4CCNCC4)ccc3c2)nn2cc(C)nc12` [Compound 54, 6-[8-fluoro-2-(piperidin-4-yl)quinolin-6-yl]-N-(2-methoxyethyl)-2-methylimidazo[1,2-b]pyridazin-8-amine] gave an IC50 of 0.1 to 0.5 µM.

`CCCN1CCC(c2cc3c(F)cc(-c4cc(C)c5nc(C)cn5n4)cc3nn2)CC1` [Compound 77, 7-(2,8-dimethylimidazo[1,2-b]pyridazin-6-yl)-5-fluoro-3-(l-propylpiperidin-4-yl)cinnoline] showed an IC50 of at most 0.1 µM.

`Cc1nc2c(C)cc(-c3cc(F)c4cc(C5CCNCC5)nnc4c3)nc2[nH]1` [Compound 126, 7-(2,7-dimethyl-3H-imidazo[4,5-b]pyridin-5-yl)-5-fluoro-3-(piperidin-4-yl)cinnoline] registered an IC50 of at most 0.1 µM.

With `Cc1cc(C2CCNCC2)nc2ccc(-c3ccc4nn(C)cc4c3)cc12` [Compound 5, 4-methyl-6-(2-methyl-2H-indazol-5-yl)-2-(piperidin-4-yl)quinoline], the IC50 was in the range of 1 to 3 µM.

Compound `Cc1cn2nc(-c3cc(F)c4cc(C5CCN(CCO)CC5)nnc4c3)cc(CO)c2n1` [Compound 181, 2-(4-{5-fluoro-7-[8-(hydroxymethyl)-2-methylimidazo[1,2-b]pyridazin-6-yl]cinnolin-3-yl}piperidin-1-yl)ethan-1-ol] showed an IC50 of at most 0.1 µM.

For the compound `Cn1cc2cc(-c3ccc4nc(C5CCNCC5)ccc4c3)ccc2n1` [Compound 3, 6-(2-methyl-2H-indazol-5-yl)-2-(piperidin-4-yl)quinolone], the IC50 fell in the range of 0.1 to 0.5 µM.

`CCN1CCC(c2cc3c(F)cc(-c4cc(C(C)C)c5nc(C)cn5n4)cc3nn2)CC1` [Compound 222, 3-(1-ethylpiperidin-4-yl)-5-fluoro-7-[2-methyl-8-(propan-2-yl)imidazo[1,2-b]pyridazin-6-yl]cinnoline] displayed an IC50 of 0.1 to 0.5 µM.

In turn, `Cc1cc(-c2ccc3cc(C4CCNCC4)ncc3c2)cc2cn(C)nc12` [Compound 30, 7-(2,7-dimethyl-2H-indazol-5-yl)-3-(piperidin-4-yl)isoquinoline] yielded an IC50 of 0.1 to 0.5 µM.

One may read the IC50 as the concentration at which inhibition is half-maximal.
